# Assay results taken from US20130157953A1, “TREATMENT OF CARDIAC CONDITIONS” (Zealand Pharma A/S, priority 2010, published 2013).
# Numbered stars: 1 amine (or outer) side, 2 acyl side, 3 side chain; on linkers, the order of the positions; unused ones are H or OH. Square brackets hold non-standard residues; d marks the D form. Side chains are listed from the residue outwards. Peptide text beside a SMILES is read from it. * marks the point of attachment. γGlu = O=C(O)[C@H](CCC(=O)[*:2])N[*:1]; Palmitoyl = CCCCCCCCCCCCCCCC(=O)*; Aib = CC(C)(N)C(=O)O
# Key:
# [1] = target: T1, human glucagon receptor (Homo sapiens, UniProt P47871); experiment: cAMP formation in HEK293 cells expressing the human glucagon receptor; assay type: cell-based; conditions: 15 min at 37° C., read-out: EC50 (nM) GuR
# T1 construct: expressed in transfected cells; host or cells: HEK293
# Text: (§1) Similarly, activation of the GLP-1 receptor by a GLP-1 agonist will stimulate cellular cAMP formation. Thus, production of cAMP in suitable cells expressing one of these two receptors can be used to monitor the relevant receptor activity.
# (§2) The skilled person will be aware of suitable assay formats, and examples are provided below. […] (Where sequences of precursor proteins are referred to, it should of course be understood that assays may make use of the mature protein, lacking the signal sequence).
# (§3) On the day of analysis, growth medium was removed and the cells washed once with 200 μl Tyrode buffer. Cells were incubated in […] containing increasing concentrations of test peptides, 100 μM IBMX, and 6 mM glucose for 15 min at 37° C. The reaction was stopped by addition of 25 μl 0.5 M HCl and incubated on ice for 60 min. The cAMP content was estimated using the FlashPlate® cAMP kit from Perkin-Elmer. EC50 values were estimated by computer aided curve fitting.
# [2] = target: T2, human GLP-1R (Homo sapiens, UniProt P43220); experiment: cAMP formation in HEK293 cells expressing human GLP-1R; assay type: cell-based; conditions: 15 min at 37° C.
# T2 construct: expressed in transfected cells; host or cells: HEK293
# Text: as §1, §2, §3
# T2 sequence (P43220 24-463): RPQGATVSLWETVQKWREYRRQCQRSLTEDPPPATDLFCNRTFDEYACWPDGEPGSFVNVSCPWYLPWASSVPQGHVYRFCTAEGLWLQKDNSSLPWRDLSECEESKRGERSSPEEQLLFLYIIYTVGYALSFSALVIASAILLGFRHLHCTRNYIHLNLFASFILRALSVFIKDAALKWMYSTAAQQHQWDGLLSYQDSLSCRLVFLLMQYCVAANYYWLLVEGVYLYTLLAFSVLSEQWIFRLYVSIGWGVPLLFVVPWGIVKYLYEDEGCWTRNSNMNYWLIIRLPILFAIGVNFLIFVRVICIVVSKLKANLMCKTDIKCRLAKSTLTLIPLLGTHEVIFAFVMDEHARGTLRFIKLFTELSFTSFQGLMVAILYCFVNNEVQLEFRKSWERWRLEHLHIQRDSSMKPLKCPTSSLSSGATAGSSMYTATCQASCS
# T1 sequence (P47871 26-477): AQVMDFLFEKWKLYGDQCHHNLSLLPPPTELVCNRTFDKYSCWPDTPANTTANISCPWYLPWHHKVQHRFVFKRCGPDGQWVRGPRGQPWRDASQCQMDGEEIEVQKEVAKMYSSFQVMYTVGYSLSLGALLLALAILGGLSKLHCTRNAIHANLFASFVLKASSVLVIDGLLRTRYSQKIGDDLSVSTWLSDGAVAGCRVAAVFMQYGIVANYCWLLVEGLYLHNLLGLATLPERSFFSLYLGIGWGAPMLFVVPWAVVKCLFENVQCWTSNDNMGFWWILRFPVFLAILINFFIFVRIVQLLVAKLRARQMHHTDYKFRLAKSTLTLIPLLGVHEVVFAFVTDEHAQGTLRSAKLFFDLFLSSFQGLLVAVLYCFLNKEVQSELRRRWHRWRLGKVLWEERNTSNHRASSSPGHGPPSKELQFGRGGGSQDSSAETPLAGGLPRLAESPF
EC50 [1] [nM],EC50 [2] [nM],Compound
0.06,0.08,CC(C)C[C@H](NC(=O)[C@H](CC(C)C)NC(=O)[C@H](Cc1c[nH]c2ccccc12)NC(=O)[C@H](CCC(=O)O)NC(=O)[C@@H](NC(=O)[C@H](Cc1ccccc1)NC(=O)[C@H](CC(=O)O)NC(=O)[C@H](Cc1c[nH]cn1)NC(=O)[C@H](C)NC(=O)[C@H](C)NC(=O)[C@H](CCCCN)NC(=O)[C@H](CO)NC(=O)[C@H](CC(=O)O)NC(=O)[C@H](CC(C)C)NC(=O)[C@H](Cc1ccc(O)cc1)NC(=O)[C@H](CCCCN)NC(=O)[C@H](CO)NC(=O)[C@H](Cc1ccc(O)cc1)NC(=O)[C@H](CC(=O)O)NC(=O)[C@H](CO)NC(=O)[C@@H](NC(=O)[C@H](Cc1ccccc1)NC(=O)[C@@H](NC(=O)CNC(=O)[C@H](CCC(N)=O)NC(=O)C(C)(C)NC(=O)[C@@H](N)Cc1c[nH]cn1)[C@@H](C)O)[C@@H](C)O)C(C)C)C(=O)N[C@@H](CCCNC(=N)N)C(=O)N[C@@H](C)C(N)=O [Compound 45] (H-H[Aib]QGTFTSDYSKYLDSKAAHDFVEWLLRA-NH2)
0.16,0.11,CCCCCCCCCCCCCCCC(=O)N[C@@H](CCC(=O)NCCCC[C@H](NC(=O)[C@H](CO)NC(=O)[C@H](CC(=O)O)NC(=O)[C@H](CC(C)C)NC(=O)[C@H](Cc1ccc(O)cc1)NC(=O)[C@H](CCCCN)NC(=O)[C@H](CO)NC(=O)[C@H](Cc1ccc(O)cc1)NC(=O)[C@H](CC(=O)O)NC(=O)[C@H](CO)NC(=O)[C@@H](NC(=O)[C@H](Cc1ccccc1)NC(=O)[C@@H](NC(=O)CNC(=O)[C@H](CCC(N)=O)NC(=O)C(C)(C)NC(=O)[C@@H](N)Cc1c[nH]cn1)[C@@H](C)O)[C@@H](C)O)C(=O)N[C@@H](C)C(=O)N[C@@H](C)C(=O)N[C@@H](Cc1c[nH]cn1)C(=O)N[C@@H](CC(=O)O)C(=O)N[C@@H](Cc1ccccc1)C(=O)N[C@H](C(=O)N[C@@H](CCC(=O)O)C(=O)N[C@@H](Cc1c[nH]c2ccccc12)C(=O)N[C@@H](CC(C)C)C(=O)N[C@@H](CC(C)C)C(=O)N[C@@H](CO)C(=O)N[C@@H](C)C(N)=O)C(C)C)C(=O)O [Compound 208]
0.1,0.1,CC(C)C[C@H](NC(=O)[C@H](Cc1ccc(O)cc1)NC(=O)[C@H](CCCCN)NC(=O)[C@H](CO)NC(=O)[C@H](Cc1ccc(O)cc1)NC(=O)[C@H](CC(=O)O)NC(=O)[C@H](CO)NC(=O)[C@@H](NC(=O)[C@H](Cc1ccccc1)NC(=O)[C@@H](NC(=O)CNC(=O)[C@H](CCC(N)=O)NC(=O)[C@H](CO)NC(=O)[C@@H](N)Cc1c[nH]cn1)[C@@H](C)O)[C@@H](C)O)C(=O)N[C@@H](CC(=O)O)C(=O)N[C@@H](CO)C(=O)N[C@@H](CCCNC(=N)N)C(=O)N[C@@H](CCCNC(=N)N)C(=O)N[C@@H](C)C(=O)N[C@@H](CCC(N)=O)C(=O)N[C@@H](CC(=O)O)C(=O)N[C@@H](Cc1ccccc1)C(=O)N[C@H](C(=O)N[C@@H](Cc1c[nH]c2ccccc12)C(=O)N[C@@H](CC(C)C)C(=O)N[C@@H](CCCCN)C(=O)N[C@@H](CO)C(=O)N[C@@H](C)C(N)=O)C(C)C [Compound 249]
0.06,–,H-HSQGTFTSDYSKYLDSKAAHDFVEWLLRA-NH2 [Compound 48]
0.07,–,H-HSQGTFTSDYSKYLDSKAAQDFVWLMNT-NH2 [Compound 260]

# The next lines start with the compound.
Compound,EC50 [1] [nM],EC50 [2] [nM]
CCCCCCCCCCCCCCCC(=O)N[C@@H](CCC(=O)NCCCC[C@H](NC(=O)[C@H](C)NC(=O)[C@H](C)NC(=O)[C@H](CCCCN)NC(=O)[C@H](CO)NC(=O)[C@H](CC(=O)O)NC(=O)[C@H](CC(C)C)NC(=O)[C@H](Cc1ccc(O)cc1)NC(=O)[C@H](CCCCN)NC(=O)[C@H](CO)NC(=O)[C@H](Cc1ccc(O)cc1)NC(=O)[C@H](CC(=O)O)NC(=O)[C@H](CO)NC(=O)[C@@H](NC(=O)[C@H](Cc1ccccc1)NC(=O)[C@@H](NC(=O)CNC(=O)[C@H](CCC(N)=O)NC(=O)[C@H](CO)NC(=O)[C@@H](N)Cc1c[nH]cn1)[C@@H](C)O)[C@@H](C)O)C(=O)N[C@@H](CC(=O)O)C(=O)N[C@@H](Cc1ccccc1)C(=O)N[C@H](C(=O)N[C@@H](CCC(=O)O)C(=O)N[C@@H](Cc1c[nH]c2ccccc12)C(=O)N[C@@H](CC(C)C)C(=O)N[C@@H](CC(C)C)C(=O)N[C@@H](CCCNC(=N)N)C(=O)N[C@@H](C)C(N)=O)C(C)C)C(=O)O [Compound 204] (H-HSQGTFTSDYSKYLDSKAAK([γGlu-Palmitoyl])DFVEWLLRA-NH2),0.04,0.1
CCCCCCCCCCCCCCCC(=O)N[C@@H](CCC(=O)NCCCC[C@H](NC(=O)[C@H](CC(C)C)NC(=O)[C@H](CC(C)C)NC(=O)[C@H](Cc1c[nH]c2ccccc12)NC(=O)[C@H](CCC(=O)O)NC(=O)[C@@H](NC(=O)[C@H](Cc1ccccc1)NC(=O)[C@H](CC(=O)O)NC(=O)[C@H](Cc1c[nH]cn1)NC(=O)[C@H](C)NC(=O)[C@H](C)NC(=O)[C@H](CCCCN)NC(=O)[C@H](CO)NC(=O)[C@H](CC(=O)O)NC(=O)[C@H](CC(C)C)NC(=O)[C@H](Cc1ccc(O)cc1)NC(=O)[C@H](CCCCN)NC(=O)[C@H](CO)NC(=O)[C@H](Cc1ccc(O)cc1)NC(=O)[C@H](CC(=O)O)NC(=O)[C@H](CO)NC(=O)[C@@H](NC(=O)[C@H](Cc1ccccc1)NC(=O)[C@@H](NC(=O)CNC(=O)[C@H](CCC(N)=O)NC(=O)[C@H](CO)NC(=O)[C@@H](N)Cc1c[nH]cn1)[C@@H](C)O)[C@@H](C)O)C(C)C)C(=O)N[C@@H](C)C(N)=O)C(=O)O [Compound 205] (H-HSQGTFTSDYSKYLDSKAAHDFVEWLLK([γGlu-Palmitoyl])A-NH2),0.1,0.09
CC(C)C[C@H](NC(=O)[C@H](Cc1ccc(O)cc1)NC(=O)[C@H](CCCCN)NC(=O)[C@H](CO)NC(=O)[C@H](Cc1ccc(O)cc1)NC(=O)[C@H](CC(=O)O)NC(=O)[C@H](CO)NC(=O)[C@@H](NC(=O)[C@H](Cc1ccccc1)NC(=O)[C@@H](NC(=O)CNC(=O)[C@H](CCC(N)=O)NC(=O)[C@H](CO)NC(=O)[C@@H](N)Cc1c[nH]cn1)[C@@H](C)O)[C@@H](C)O)C(=O)N[C@@H](CC(=O)O)C(=O)N[C@@H](CO)C(=O)N[C@@H](CCCNC(=N)N)C(=O)N[C@@H](CCCNC(=N)N)C(=O)N[C@@H](C)C(=O)N[C@@H](CCC(N)=O)C(=O)N[C@@H](CC(=O)O)C(=O)N[C@@H](Cc1ccccc1)C(=O)N[C@H](C(=O)N[C@@H](Cc1c[nH]c2ccccc12)C(=O)N[C@@H](CC(C)C)C(=O)N[C@@H](CCC(=O)O)C(=O)N[C@@H](CO)C(=O)N[C@@H](C)C(N)=O)C(C)C [Compound 248],0.1,0.5
CC(C)C[C@H](NC(=O)[C@H](Cc1ccc(O)cc1)NC(=O)[C@H](CCCCN)NC(=O)[C@H](CO)NC(=O)[C@H](Cc1ccc(O)cc1)NC(=O)[C@H](CC(=O)O)NC(=O)[C@H](CO)NC(=O)[C@@H](NC(=O)[C@H](Cc1ccccc1)NC(=O)[C@@H](NC(=O)CNC(=O)[C@H](CCC(N)=O)NC(=O)[C@H](CO)NC(=O)[C@@H](N)Cc1c[nH]cn1)[C@@H](C)O)[C@@H](C)O)C(=O)N[C@@H](CC(=O)O)C(=O)N[C@@H](CO)C(=O)N[C@@H](CCCNC(=N)N)C(=O)N[C@@H](CCCNC(=N)N)C(=O)N[C@@H](C)C(=O)N[C@@H](CCC(N)=O)C(=O)N[C@@H](CC(=O)O)C(=O)N[C@@H](Cc1ccccc1)C(=O)N[C@H](C(=O)N[C@@H](Cc1c[nH]c2ccccc12)C(=O)N[C@@H](CC(C)C)C(=O)N[C@@H](CCCCN)C(=O)N[C@@H](CCCNC(=N)N)C(=O)N[C@@H](C)C(N)=O)C(C)C [Compound 250],0.1,0.3
H-HSQGTFTSDYSRYLDERRAQDFVWLMNT-NH2 [Compound 258],0.06,–
